The results in this text go back to patent publication US20150064724A1, “BIOMARKERS FOR PROGNOSES OF PULMONARY DISEASES” (University of Pittsburgh - of the Commonwealth System of …, priority 2009, published 2015).

The experiment relates to CD4+CD28null T cells from lung transplant recipients with BOS. As to the kind of experiment: Inhibition of proliferation by cyclosporine A (BrdU incorporation, flow cytometry). Format: cell-based, human. Particulars: preliminary findings, n=2 subjects; compared with CD4+CD28+ cells. The procedure:
Segregated CD28+ and CD28null CD4 T-cell subpopulations were individually cultured in duplicate wells coated with anti-CD3 monoclonal antibody (OKT3) (see above). Autologous nurse cells, positively selected during the initial CD4 T-cell isolations (see above) were added in a 3:1 nurse cell:CD4 T-cell ratio. In order to eliminate potential confounding by CD4dim monocytes, all CD4+ cells were depleted from the nurse cells (<<1% residual), prior to their use in cultures, by positive selection with anti-CD4-coated magnetic beads (Invitrogen, Carlsbad, Calif.). Cyclosporine (Novartis, East Hanover, N.J.) to a final concentration of 100 ng/ml was added to half the wells. Proliferation within the respective CD4 subpopulations were measured by bromodeoxyuridine (BrdU) incorporation, using reagents and methods supplied in a kit (BD Pharmingen). In brief, BrdU in a final concentration of 10 μM was added to cultures two days prior to their harvests. After 5±1 days of culture, cells were harvested from wells and stained with anti-CD4, fixed and permeabilized, and then incubated with anti-BrdU and 7-amino-actinomycin (7-AAD). The proportion of proliferating CD4+ T cells (BrdU+) among the viable cells (≧diploid DNA content) was determined by flow cytometry.
In general terms: Dividing cells build labelled thymidine or BrdU into new DNA.

With `C=CC[C@@H]1/C=C(\C)C[C@H](C)C[C@H](OC)[C@H]2O[C@@](O)(C(=O)C(=O)N3CCCC[C@H]3C(=O)O[C@H](/C(C)=C/[C@@H]3CC[C@@H](O)[C@H](OC)C3)[C@H](C)[C@@H](O)CC1=O)[C@H](C)C[C@@H]2OC` [tacrolimus], the “resistance of CD4+CD28null T cells to the drug” value is “relatively resistant”.
